Data on 16 compounds can be found in ChEMBL document CHEMBL4828733, “Discovery and In Vivo Anti-inflammatory Activity Evaluation of a Novel Non-peptidyl Non-covalent Cathepsin C Inhibitor” (J Med Chem, 2021).

Series [1] can be described thus: Octanol/water partition coefficient, logP of compound at pH 7.4. The format is physicochemical.
Series [2] is described as follows: Acute toxicity in ICR mouse assessed as mortality rate at 1500 mg/kg, po administered as single dose measured after 1 week relative to control. Format: organism-based. The conditions noted are these: in vivo, time 1 weeks, read-out: Activity.
Series [3] in a line: MRT in Sprague-Dawley rat at 1 mg/kg, ip measured up to 24 hrs by LC-MS/MS analysis. Format: ADME, organism-based. The note with it: in vivo.
Series [4] in a line: Cmax in Sprague-Dawley rat at 1 mg/kg, ip measured up to 24 hrs by LC-MS/MS analysis. Format: ADME, organism-based. More on the design: route intraperitoneal, dose 1 mg/kg, time <=24. The note with it: in vivo.
Series [5] is described as follows: AUC (0 to infinitive) in Sprague-Dawley rat at 1 mg/kg, ip measured up to 24 hrs by LC-MS/MS analysis. Also on record: route intraperitoneal, dose 1 mg/kg, time <=24. The conditions noted are these: in vivo. Format: ADME, organism-based.
A short description of series [6]: Tmax in Sprague-Dawley rat at 10 mg/kg, po measured up to 24 hrs by LC-MS/MS analysis. Format: ADME, organism-based. The note with it: in vivo.
Series [7] is described as follows: MRT in Sprague-Dawley rat at 10 mg/kg, po measured up to 24 hrs by LC-MS/MS analysis. The format is ADME, organism-based. The conditions noted are these: in vivo.
A short description of series [8]: Cmax in Sprague-Dawley rat at 10 mg/kg, po measured up to 24 hrs by LC-MS/MS analysis. The conditions noted are these: in vivo. More on the design: route oral, dose 10 mg/kg, time <=24. The format is ADME, organism-based.
A short description of series [9]: AUC (0 to infinitive) in Sprague-Dawley rat at 10 mg/kg, po measured up to 24 hrs by LC-MS/MS analysis. Format: ADME, organism-based. More on the design: route oral, dose 10 mg/kg, time <=24. The conditions noted are these: in vivo.
A short description of series [10]: Oral bioavailability in Sprague-Dawley rat at 10 mg/kg measured up to 24 hrs by LC-MS/MS analysis. The note with it: in vivo. The format is ADME, organism-based.

In the case of `CN(C)C1CCN(c2ccc(Nc3ncc(Cl)c(Nc4cccc(C(F)(F)F)c4)n3)nc2)CC1`, the logD in series [1] was 2.01. In series [2], the mortality at 168 h was found to be 70%. In series [1], `CCN1CCN(c2ccc(Nc3ncc(Cl)c(Nc4cccc(C(F)(F)F)c4)n3)nc2)CC1` displayed a logD of 2.18. The same measure, in the same setting: the same measure for `CN1CCN(c2ccc(Nc3ncc(Cl)c(Nc4cccc(C(F)(F)F)c4)n3)cn2)CC1`: 1.61; for `FC(F)(F)c1cccc(Nc2nc(Nc3cccnc3)ncc2Cl)c1`: 1.26; for `CN1CCN(c2ncc(Nc3ncc(Cl)c(Nc4cccc(C(F)(F)F)c4)n3)cn2)CC1`: 1.89. Same read-out and setting: the same measure for `FC(F)(F)c1cccc(Nc2nc(Nc3ccc(N4CCNCC4)cn3)ncc2Cl)c1`: 1.25; for `FC(F)(F)c1cccc(Nc2nc(Nc3ccc(-c4ccsc4)cn3)ncc2Cl)c1`: 2.03; for `FC(F)(F)c1cccc(Nc2nc(Nc3ccccn3)ncc2Cl)c1`: 1.4. The same measure, in the same setting: the same measure for `CN1CCN(c2ccc(Nc3ncc(Cl)c(Nc4cccc(C(F)(F)F)c4)n3)nn2)CC1`: 1.26; for `CN1CCN(c2ccc(Nc3ncc(Cl)c(Nc4cccc(C(F)(F)F)c4)n3)cc2)CC1`: 1.46; for `FC(F)(F)Oc1cccc(Nc2nc(Nc3ccccc3)ncc2Cl)c1`: 2.65. For `FC(F)(F)c1cccc(Nc2nc(Nc3ccccc3)ncc2Cl)c1`, the logD in [1] turned out to be 2.46. `CN1CCN(c2ccc(Nc3ncc(Cl)c(Nc4cccc(C(F)(F)F)c4)n3)nc2)CC1` gave a logD in [1] of 1.87. Further, the MRT in [3] was 1.22 h; in series [7], 2.68 h. Also, the results for the Cmax in series [4] and in series [8] were 0.458 µg/mL and 0.0835 µg/mL, respectively. In [5], this compound came in with an AUC of 0.2492 µg·h/mL. Further, in [6], the Tmax was 2 h. Also, the AUC(0-inf) in series [9] is 0.158 µg·h/mL. The bioavailability in series [10] amounted to 16.7%. As for `FC(F)(F)c1cccc(Nc2nc(Nc3cccnn3)ncc2Cl)c1`, the logD in series [1] came to 2.26. The same measure, in the same setting: with `FC(F)(F)c1cccc(Nc2nc(Nc3cncnc3)ncc2Cl)c1` the figure was 2.01; with `NC1CCN(c2ccc(Nc3ncc(Cl)c(Nc4cccc(C(F)(F)F)c4)n3)nc2)CC1`, 0.44.
